{"source": "patent US8932627B2", "about": "“Liposomal compositions of glucocorticoid and glucocorticoid derivatives” (Yissum Research Development Company of the Hebrew …, priority 2004, dated 2015)", "key": {"[1]": {"settings": "ex vivo stability, after 24 hours, passively loaded liposomes; cited from earlier work"}, "[2]": {"test": "State of aggregation (turbidity, light scattering at 90°) of MPS as function of pH", "type": "physicochemical", "method": "Aggregation of MPS was determined from the change in turbidity measured as intensity of light scattered at 90° to excitation beam using a spectrofluormeter under conditions that MPS lack absorbance (excitation and emission at the same wavelength Ex=600 nm Em=600 nm). There is a large increase in the light scattered by MPS solution/dispersion due to formation of aggregates.\nThe intensity of scattered light (at 90° to the excitation), also defined as turbidity is proportional to concentration and to the size of the aggregates. [Zuidam, N. J. and Barenholz, Y., Biochim. Biophys. Acta 1368:115-128 (1998)]. The state of aggregation of MPS was tested in the following manner: To quartz cuvette MPS (2 ml) at concentration of ˜6.5 mg/ml MPS was added. The solution was tittered with HCl (1.756M) and light scattering using excitation and emission at (both at 600 nm with attenuation of 1%) and pH of the solution was monitored."}, "[3]": {"settings": "26° C.; MPS 0.785-30 mM", "method": "Surface tension was measured using μtrouge S (Kibron Inc., Helsinki Finland). A solution containing GC derivative (300 μL) was placed in the well after calibration and zeroing of the sensor using pure water and air. The measurement was performed at 26° C."}, "[4]": {"test": "Precipitation of MPS by calcium ion (Ca-acetate solution)", "type": "physicochemical", "settings": "pH 4.5; 600 mOsm Ca-acetate, 63° C., 5 mg/ml MPS, 40 minutes", "method": "To 600 mOsm Ca-acetate solution at 63° C. and at different pH points MPS was added at final concentration of 5 mg/ml, then mixed solution was incubated for 40 minutes after which the solution was centrifuged and the supernatant was analyzed using HPLC."}, "[5]": {"test_system": "Experimental Autoimmune Encephalomyelitis (EAE)", "test": "Treatment of acute EAE (PLP 139-151 induced) with SSL-MPS, single injection", "type": "in vivo, SJL female mice", "settings": "50 mg/kg BW, 1 injection day 14, follow up 3 weeks"}, "[6]": {"test_system": "Experimental Autoimmune Encephalomyelitis (EAE)", "test": "Treatment of severe disease burden in acute EAE (PLP induced)", "type": "in vivo, SJL female mice", "method": "In order to boost the immune system Pertussis Toxin (PT) 150 ng were injected intraperitoneally (i.p.) to the mice on the first day and 48 hours later.\nEach mouse was examined daily for clinical signs of EAE using the following Table 4:\nFor mice showing a severe disease burden (determined by summing the scores of each of the 10 mice in the group and calculating the mean score per day, according to the following equation: Σtotal score of each mouse per day/number of mice in the group) a different treatment was applied. Specifically, after immunization as described above, mice were treated with 50 mg/kg BW SSL-MPS (days 10, 14, 18) or with free-MPS 50 mg/kg BW (days 10, 14, 18) or dextrose 5% (days 10, 14, 18). For each group, the incidence, MMS=mean maximal score; MDD=mean disease duration (days); MDO=mean day of onset and mean score were determined Table 7. Further, for each group the mean clinical scores at each time point was determined (FIG. 6B) as well as the survival curve (FIG. 6A)."}, "[7]": {"test_system": "J6456 lymphoma cells (mouse T-cell lymphoma)", "test": "Survival of mice injected i.p. with J6456 lymphoma cells", "type": "in vivo, BALB/C mice", "settings": "free-MPS days 5, 9, 12, SSL-MPS days 5, 9, 12, 16", "method": "At day 1 of the experiment BALB/C mice were injected i.p. with 1 million J6456 lymphoma cells (mouse T-cell lymphoma) then mice were divided into groups and treated by i.v. injections with free-MPS or SSL-MPS according to the following treatment schedule (Table 9)."}, "[8]": {"test_system": "BCL-1 (mouse B cell lymphoid leukemia)", "test": "Survival of BCL-1 tumor bearing mice", "type": "in vivo, BALB/C mice", "method": "In a further assay, survival of BCL-1 (mouse B cell lymphoid leukemia) tumor bearing mice was determined. […] Then, the mice were divided into groups and treated at days 5, 9, 12, 16, by i.v. injections, with the following treatment formulations: […]\nGroup I—5 mg/kg BW free-MPS;\nGroup II—25 mg/kg BW free-MPS;\nGroup III—5 mg/kg BW SSL-MPS;\nGroup IV—50 mg/kg BW SSL-MPS."}, "[9]": {"test_system": "BCL-1 lymphoma cells", "test": "Sensitivity of BCL-1 cell line to MPS", "type": "cell-based, mouse"}}, "data": [{"compound": "triamcinolone acetonide phosphate", "values": [{"measurement": "acidic corticosteroid retained by the liposome", "setting": "[1]", "result": "more than 75%"}]}, {"compound": "C[C@H]1C[C@@H]2[C@H]([C@@H](O)C[C@@]3(C)[C@H]2CC[C@]3(O)C(=O)COC(=O)CCC(=O)[O-])[C@@]2(C)C=CC(=O)C=C12.[Na+]", "note": "[MPS, methylprednisolone sodium hemisuccinate]", "values": [{"measurement": "state of aggregation (turbidity)", "setting": "[2]; acidic pH, FIG. 1A", "result": "it aggregates"}, {"measurement": "state of aggregation (turbidity)", "setting": "[2]; pH 7.2, FIG. 1A", "result": "non-aggregated water soluble"}, {"measurement": "surface activity (surface tension)", "setting": "[3]", "result": "surface active at all concentrations used"}, {"measurement": "% MPS precipitated", "setting": "[4]", "result": 97, "unit": "%"}, {"measurement": "Incidence", "setting": "[5]", "result": "7/9"}, {"measurement": "MDD (mean disease duration)", "setting": "[5]", "result": "10.9 ± 2.7", "unit": "days"}, {"measurement": "MDO (mean day of onset)", "setting": "[5]", "result": "16.7 ± 1.83"}, {"measurement": "MMS (mean maximal score)", "setting": "[5]", "result": "2.35 ± 0.39"}, {"measurement": "Mean Score", "setting": "[5]", "result": "0.861 ± 0.105"}, {"measurement": "#dead", "setting": "[6]; 50 mg/kg BW days 10, 14, 18", "result": 3}, {"measurement": "Incidence", "setting": "[6]; 50 mg/kg BW days 10, 14, 18", "result": "9/9"}, {"measurement": "MDD (mean disease duration)", "setting": "[6]; 50 mg/kg BW days 10, 14, 18", "result": "10.11 ± 1.92", "unit": "days"}, {"measurement": "MDO (mean day of onset)", "setting": "[6]; 50 mg/kg BW days 10, 14, 18", "result": "12.67 ± 0.65"}, {"measurement": "MMS (mean maximal score)", "setting": "[6]; 50 mg/kg BW days 10, 14, 18", "result": "4.44 ± 0.50"}, {"measurement": "Mean Score", "setting": "[6]; 50 mg/kg BW days 10, 14, 18", "result": "2.62 ± 0.208"}, {"measurement": "survival / mortality", "setting": "[6]; 50 mg/kg BW days 10, 14, 18, FIG. 6A", "result": "there was mortality"}, {"measurement": "mean clinical score at day 19", "setting": "[6]; 50 mg/kg BW days 10, 14, 18, FIG. 6B", "result": "~3"}, {"measurement": "Median survival", "setting": "[7]; 15 mg/kg BW i.v.", "result": 16}, {"measurement": "Median survival", "setting": "[7]; 50 mg/kg BW i.v.", "result": 16}, {"measurement": "Survival median", "setting": "[8]; 5 mg/kg BW i.v. days 5, 9, 12, 16", "result": 19}, {"measurement": "Survival median", "setting": "[8]; 25 mg/kg BW i.v. days 5, 9, 12, 16", "result": 19}, {"measurement": "sensitivity of the cell line", "setting": "[9]; BCL-1", "result": "highly sensitive"}, {"measurement": "IC50", "setting": "[9]; BCL-1 lymphoma cells (B cell line)", "result": "in the nmolar range"}]}]}
